{"source": "patent US20120005128A1", "about": "“METHODS FOR REDUCING THE RISK OF AN ADVERSE DRONEDARONE / CALCIUM CHANNEL BLOCKERS INTERACTION IN A PATIENT SUFFERING FROM ATRIAL FIBRILATION” (sanofi, priority 2010, published 2012)", "key": {"[1]": {"test": "Dronedarone/verapamil pharmacokinetic interaction crossover study, plasma PK on Day 14"}, "[2]": {"test": "ATHENA clinical study, patients with calcium channel blockers baseline medication", "assay_type": "in vivo", "from_the_text": "Calcium channel blockers have been used in ATHENA clinical study and at the same rate in the dronedarone group and in the placebo group. About 13 to 20% of the patients had received one of these compounds during the study.\nIn the ATHENA trial, the concomitant administration of calcium antagonists and dronedarone was done according to the above mentioned instructions, i.e. start with low doses of the calcium antagonist and then increase the dose after ECG verification of good tolerability, if necessary and based on individual patient characteristics.\nThe relative risk (RR) was estimated using Cox's […] regression model.\nThe relative risk (RR) is the ratio of the rates of occurrence of a hospitalization or of a death among the patients on dronedarone, relative to the patients on placebo.\nThe percentage reduction x of a given event (hospitalization, death, cardiovascular death, etc.) is calculated in the following way: […]"}, "[3]": {"test": "12-lead ECG (PR, QTcF intervals) in dronedarone/verapamil interaction study, Day 14", "conditions": "baseline Day 1, -0.5 h, least square means"}, "[4]": {"conditions": "dronedarone plus verapamil versus dronedarone alone"}, "[5]": {"conditions": "verapamil plus dronedarone versus verapamil alone"}, "[6]": {"conditions": "331 patients with calcium channel blockers baseline medication, 122 events in placebo group (307 patients)"}, "[7]": {"conditions": "versus placebo, Cox model, calcium channel blockers baseline medication"}, "[8]": {"conditions": "versus placebo, calcium channel blockers baseline medication"}}, "note": "Counter-ions that a name gives are not always drawn."}
{"smiles": "CCCCc1oc2ccc(NS(C)(=O)=O)cc2c1C(=O)c1ccc(OCCCN(CCCC)CCCC)cc1", "note": "[Dronedarone, 2-n-Butyl-3-[4-(3-di-n-butylaminopropoxy)benzoyl]-5-methylsulphonamidobenzofuran]", "values": [{"measurement": "Ratio of geometric means, AUC0-12", "setting": "[1]; [4]", "value": 1.48}, {"measurement": "Ratio of geometric means, Cmax", "setting": "[1]; [4]", "value": 1.42}, {"measurement": "Risk of hypotension, bradycardia and heart failure", "setting": "[2]; patients using both dronedarone and calcium antagonists", "value": "no increase of the risk of hypotension, bradycardia and heart failure"}, {"measurement": "Mean change (Eavr) in PR from baseline", "setting": "[3]", "value": 9.7, "unit": "ms"}, {"measurement": "Mean change (Eavr) in QTcF from baseline", "setting": "[3]", "value": 22.1, "unit": "ms"}]}
{"smiles": "COc1ccc(CCNCCCC(C#N)(c2ccc(OC)c(OC)c2)C(C)C)cc1OC", "note": "(stereo not drawn) [NVP, norverapamil]", "values": [{"measurement": "Ratio of geometric means, AUC0-24", "setting": "[1]; [5]", "value": 1.29}, {"measurement": "Ratio of geometric means, Cmax", "setting": "[1]; [5]", "value": 1.31}]}
{"smiles": "COc1ccc(CCN(C)CCCC(C#N)(c2ccc(OC)c(OC)c2)C(C)C)cc1OC", "note": "(stereo not drawn) [VP, verapamil]", "values": [{"measurement": "Mean change (Eavr) in PR from baseline", "setting": "[3]", "value": 4.2, "unit": "ms"}, {"measurement": "Mean change (Eavr) in QTcF from baseline", "setting": "[3]", "value": 2.1, "unit": "ms"}]}
{"smiles": "CCCCc1oc2ccc(NS(C)(=O)=O)cc2c1C(=O)c1ccc(OCCCN(CCCC)CCCC)cc1", "note": "[dronedarone hydrochloride]", "values": [{"measurement": "Number of events, hospitalization for congestive heart failure (CHF)", "setting": "[2]; 331 patients with calcium channel blockers baseline medication, 23 events in placebo group (307 patients)", "value": 14}, {"measurement": "Number of events, cardiovascular hospitalization or death", "setting": "[2]; [6]", "value": 90}, {"measurement": "Number of events, death", "setting": "[2]; [6]", "value": 90}, {"measurement": "Relative risk, cardiovascular hospitalization or death", "setting": "[2]; [7]", "value": 0.628}, {"measurement": "Relative risk, death", "setting": "[2]; [7]", "value": 0.628}, {"measurement": "Relative risk, hospitalization for congestive heart failure (CHF)", "setting": "[2]; [7]", "value": 0.556}, {"measurement": "Decrease of CHF", "setting": "[2]; [8]", "value": 44, "unit": "%"}, {"measurement": "Decrease of cardiovascular hospitalization or death", "setting": "[2]; [8]", "value": 37, "unit": "%"}, {"measurement": "Decrease of death", "setting": "[2]; [8]", "value": 37, "unit": "%"}]}
